Experimental data reported in PMC12727973, “Off-target autophagy disruption associated with a novel liver toxicity in dogs for a highly basic heterobifunctional protein degrader” (Frontiers in Pharmacology, 2025).

Legend:
[1] = tested on: primary human cholangiocytes; experiment: Co-treatment with V-ATPase inhibitor bafilomycin in cholangiocytes
LC3B = LC3B lipidation immunoblot in primary cholangiocytes; format: cell-based, human; details: 3 h, 300 μM
Method: Cells were treated with compounds at concentrations indicated for 3 h (immunoblotting), 18 h (proteomics), or 48 h (compound uptake) using DMSO vehicle content normalized across wells, up to 0.2%. 48 h was selected for compound uptake experiments to match the cell viability assay conditions; 18 h was selected for the initial assessment of proteome-wide changes leading to and accompanying cytotoxicity; 3 h to observe pathway changes with minimal confounding effects of cytotoxicity. […] Following compound incubation, cells were washed twice with phosphate buffer saline (PBS) and, except for compound uptake studies, lifted off plates with Accumax (Sigma-Aldrich A7089). Cells were pelleted at 700 × g for 5 min, washed with PBS, and pellets were stored at −80 °C for later sample preparation.
Lysate corresponding to 20 µg protein was combined with LDS Buffer (1X final, Thermo #NP0007) and 1 M dithiothreitol stock (100 mM final), heat denatured at 95 °C for 10 min, and loaded into the wells of a NuPage Bis-Tris Mini Protein Gel (Thermo #NP0321). Proteins were separated at 200 V for 30–40 min using a XCell SureLock Mini-Cell (Thermo #EI0001) and MES SDS Running Buffer (Thermo #NP0002).
Proteins were next transferred to a PVDF membrane (Thermo #IB24002) with an iBlot 2 Gel Transfer Device (Invitrogen #IB21001) using the standard 7 min method. […]

Row | Structure (SMILES) | Cytotoxicity alone ([1]; BafA1 alone, longer timepoints) | Effect on Compound X-induced cytotoxicity ([1]; co-treatment with Compound X, <24 h) | Effect on LC3B lipidation by Compound X ([1]; co-treatment, 100 nM or 2.5 nM BafA1, 3 h) | LC3B-II/LC3B-I (LC3B)
1 | CO/C1=C\C(C)=C\[C@@H](C)[C@@H](O)[C@@H](C)C/C(C)=C/C=C/[C@H](OC)[C@@H]([C@@H](C)[C@@H](O)[C@H](C)[C@@]2(O)C[C@@H](O)[C@H](C)[C@@H](C(C)C)O2)OC1=O [BafA1, Bafilomycin A1] | cytotoxic at longer timepoints | fully rescued compound-induced cytotoxicity | reduced the LC3B lipidation by Compound X | –
2 | CCN(CC)CCCC(C)Nc1ccnc2cc(Cl)ccc12 (stereo not shown) [CQ, chloroquine diphosphate] | – | – | – | 2.1
